This note sets out measurements from PubChem BioAssay AID435023 (Broad Institute, 2010).

The source made the active and inactive calls. No rule for the calls is given here.

Protein LANA1 (Human herpesvirus 8 type P (isolate GK18)), sequence (Q9QR71 whole entry, looked up): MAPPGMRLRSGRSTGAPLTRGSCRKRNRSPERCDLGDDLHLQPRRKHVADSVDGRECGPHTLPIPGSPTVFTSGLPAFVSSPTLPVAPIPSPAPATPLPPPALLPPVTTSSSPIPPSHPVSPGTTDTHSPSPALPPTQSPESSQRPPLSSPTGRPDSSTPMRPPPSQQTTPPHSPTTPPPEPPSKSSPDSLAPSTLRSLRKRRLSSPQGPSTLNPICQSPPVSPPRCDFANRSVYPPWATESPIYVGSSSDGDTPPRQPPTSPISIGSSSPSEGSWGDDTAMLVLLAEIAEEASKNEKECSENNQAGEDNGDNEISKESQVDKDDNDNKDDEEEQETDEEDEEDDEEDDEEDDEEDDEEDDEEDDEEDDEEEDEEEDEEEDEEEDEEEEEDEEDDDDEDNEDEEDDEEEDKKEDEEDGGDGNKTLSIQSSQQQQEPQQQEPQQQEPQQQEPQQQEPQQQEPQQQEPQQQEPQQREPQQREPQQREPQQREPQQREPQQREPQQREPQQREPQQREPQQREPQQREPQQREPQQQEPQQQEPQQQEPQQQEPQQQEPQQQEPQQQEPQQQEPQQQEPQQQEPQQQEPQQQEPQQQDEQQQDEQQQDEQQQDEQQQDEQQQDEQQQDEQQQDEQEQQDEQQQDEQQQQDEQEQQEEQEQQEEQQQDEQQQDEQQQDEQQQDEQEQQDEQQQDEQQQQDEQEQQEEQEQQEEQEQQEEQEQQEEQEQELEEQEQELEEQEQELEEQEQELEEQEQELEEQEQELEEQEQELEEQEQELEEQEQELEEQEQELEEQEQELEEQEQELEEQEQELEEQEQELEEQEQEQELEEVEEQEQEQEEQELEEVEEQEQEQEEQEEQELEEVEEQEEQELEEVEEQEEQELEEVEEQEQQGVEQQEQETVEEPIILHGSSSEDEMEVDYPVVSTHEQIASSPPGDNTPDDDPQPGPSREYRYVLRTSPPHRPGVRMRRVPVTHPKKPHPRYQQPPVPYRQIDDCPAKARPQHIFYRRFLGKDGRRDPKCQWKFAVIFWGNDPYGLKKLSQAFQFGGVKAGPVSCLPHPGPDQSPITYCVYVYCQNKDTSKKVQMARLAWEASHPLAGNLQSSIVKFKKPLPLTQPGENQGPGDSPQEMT

The assay concerns the target Protein LANA1 (Human herpesvirus 8 type P (isolate GK18)) (UniProt Q9QR71). In words: disruption of KSHV LANA peptide–nucleosome binding – biochemical, fluorescence polarization, cell-free, retest, dose response (AID 435023). For orientation: Polarisation of emitted light reports the rotation of a fluorescent probe.
As usually defined, the EC50 is the concentration that produces a half-maximal response. With `CCOc1cc(C2C3=C(CCCC3=O)Nc3nc(C(=O)OC)nn32)ccc1OC` (configuration not stated), the EC50 is > 7.5 µM (inactive).

On to `CC(=O)c1cccc(OC(=O)C2=CC=CN3CCS(=O)(=O)N=C23)c1`, for which the EC50 was > 7.5 µM (inactive).

Take `Cc1cc(C)nc(SC2CC(=O)N(c3ccc(C)c(C)c3)C2=O)n1` (configuration not stated): the EC50 is > 7.5 µM (inactive).

As for `CCN(CC)CCN1C(=O)C(O)=C(C(=O)c2ccc(C)o2)C1c1ccccn1` (configuration not stated), the EC50 was > 7.5 µM (inactive).

Regarding `CC[C@H]1c2[nH]c3ccccc3c2C[C@H]2C(=O)N(c3ccc(F)cc3)C(=O)N21`, the EC50 is > 7.5 µM (inactive).

As for `CC(C)n1c(O)c(/C=C2\C=NN=C2c2ccccc2)sc1=S`, the EC50 was > 7.5 µM (inactive).

In the case of `CN(CCOc1ccc(CC2SC(=O)NC2=O)cc1)c1ccccn1` (configuration not stated), the EC50 was > 7.5 µM (inactive).

For the compound `COc1ccc(N/C=C/C(=O)c2cc(OC)c(OC)c(OC)c2)cc1`, the EC50 is > 7.5 µM (inactive).

As to `C=CCOc1ccc(/C(O)=C2/C(=O)C(=O)N(CCCN3CCOCC3)C2c2ccc(OC)cc2)cc1` (configuration not stated), the EC50 is > 7.5 µM (inactive).

As for `CCOc1cccc(C2C(C(=O)c3ccc(C)o3)=C(O)C(=O)N2c2nccs2)c1` (configuration not stated), the EC50 was > 7.5 µM (inactive).

Regarding `COc1cccc(CNC(=O)c2ccc(NC(=O)CC3SC(N4CCCC4)=NC3=O)cc2)c1` (configuration not stated), the EC50 is > 7.5 µM (inactive).

Regarding `O=C(CC1SC(N2CCCCC2)=NC1=O)Nc1cccc(C(=O)O)c1` (configuration not stated), the EC50 is > 7.5 µM (inactive).

For `Cn1[nH]c(-c2ccccc2)c(/C=N/O)c1=O`, the EC50 is > 7.5 µM (inactive).

With `COc1ccc(NC2=C(Cl)C(=O)N(c3ccccc3)C2=O)c(OC)c1`, the EC50 is > 7.5 µM (inactive).

With `CC1(C)CC(=O)C(C(C#Cc2ccccc2)C2=C(O)CC(C)(C)CC2=O)=C(O)C1`, the EC50 is > 7.5 µM (inactive).

Regarding `O=C1CCCC(O)=C1C=Nc1ccc(O)cc1`, the EC50 is > 7.5 µM (inactive).

In the case of `Cc1ccc(N2C(=O)[C@@H]3C(C(=O)CN4C(=O)c5ccccc5C4=O)=NN[C@@H]3C2=O)c(C)c1`, the EC50 is > 7.5 µM (inactive).

In the case of `N#Cc1ccccc1/C=N/Nc1nc(-c2ccccc2)c2cc(Cl)ccc2n1`, the EC50 is > 7.5 µM (inactive).

As for `COc1ccc(CC2C(=O)N(c3ccccc3)C(=O)N(c3ccccc3)C2=O)c(OC)c1`, the EC50 is > 7.5 µM (inactive).

For `COc1ccc(C(=O)/C=C/Nc2ccc(S(=O)(=O)Nc3cc(OC)nc(OC)n3)cc2)c(OC)c1`, the EC50 was > 7.5 µM (inactive).

Regarding `O=C(/C=C/Nc1ccccc1)c1ccc(Cl)cc1Cl`, the EC50 was > 7.5 µM (inactive).

Consider `O=C(C1=C(O)C(=O)N(Cc2ccccc2)C1c1cccnc1)c1ccco1` (configuration not stated), for which the EC50 is > 7.5 µM (inactive).

Consider `Brc1ccc(C2=CC(c3ccco3)n3ncnc3N2)cc1` (configuration not stated), for which the EC50 is > 7.5 µM (inactive).

In the case of `C/C(=N/NC(=O)c1ccncc1)c1cc2ccc(O)cc2oc1=O`, the EC50 was > 7.5 µM (inactive).

Take `C/C(=N\Nc1ccc(Cl)c(C(=O)O)c1)c1ccc(N2CCOCC2)cc1`: the EC50 was > 7.5 µM (inactive).

`COC(=O)CC1=C(C(=O)OC)C(c2cc(OC)c(OC)cc2OC)C(C#N)=C(N)O1` (configuration not stated): the EC50 is > 7.5 µM (inactive).

Turning to `NC(=O)Cn1c(O)c(N=NC(=O)CNC(=O)/C=C/c2ccccc2)c2ccccc21`, the EC50 is > 7.5 µM (inactive).

For `COc1cc(/C=N/O)c(Br)cc1OCC(=O)Nc1ccccc1C`, the EC50 was > 7.5 µM (inactive).

In the case of `Cc1ccc2oc(=O)c(/C=C(\O)c3ccco3)nc2c1`, the EC50 was > 7.5 µM (inactive).

Take `CC1Cc2cc(/C(O)=C3\C(=O)C(=O)N(Cc4cccnc4)C3c3ccccc3F)ccc2O1` (configuration not stated): the EC50 is > 7.5 µM (inactive).

`CCn1c(O)c(/C=C2\C=NN=C2c2ccccc2)sc1=S`: the EC50 was > 7.5 µM (inactive).

As to `CC1(C)C(C#N)=C(N)OC2=C1C(=O)CCC2`, the EC50 is > 7.5 µM (inactive).

Regarding `CC1OC(OCC2OC(Oc3c(-c4ccc(O)cc4)oc4cc(O)cc(O)c4c3=O)C(O)C(O)C2O)C(O)C(O)C1O` (configuration not stated), the EC50 is > 7.5 µM (inactive).

As to `COc1ccccc1N1C(=O)[C@@H]2C(C(=O)CN3C(=O)c4ccccc4C3=O)=NN[C@@H]2C1=O`, the EC50 is > 7.5 µM (inactive).

On to `CC1=NCCc2c1[nH]c1cc(O)ccc21`, for which the concentration giving a half-maximal response (EC50) is 2.37 µM.

On to `C/C(=N\Nc1nncc2ccccc12)c1ccc(O)cc1`, for which the EC50 is > 7.5 µM (inactive).

For `Cc1nc2c(C)cccn2c1/C(O)=C1\C(=O)C(=O)N(CCN(C)C)C1c1ccccc1` (configuration not stated), the EC50 is > 7.5 µM (inactive).

Turning to `CN1CC=C2C(C#N)=C(N)C(C#N)(C#N)[C@H](c3ccoc3)[C@H]2C1`, the EC50 is > 7.5 µM (inactive).

As to `O=C1CC(c2ccc(F)cc2)CC(O)=C1C=NCCN1CCNCC1` (configuration not stated), the EC50 is > 7.5 µM (inactive).

For the compound `COc1ccc(CCn2c(O)c(C=Nc3ccc(F)cc3)c(=O)[nH]c2=O)cc1OC`, the EC50 was > 7.5 µM (inactive).

Take `CC1(C)C(c2cccs2)=[N+]([O-])C2(CCCCC/C2=N\O)N1O` (configuration not stated): the EC50 was > 7.5 µM (inactive).

As to `N#CC(C#N)=C/C(C#N)=C(/N)N1CCN(c2ccc(Cl)cc2)CC1`, the EC50 was > 7.5 µM (inactive).

With `COc1ccc(C2C(C(=O)c3cccs3)=C(O)C(=O)N2c2nncs2)cc1` (configuration not stated), the EC50 was > 7.5 µM (inactive).

For `Oc1c(N=NC(=S)Nc2ccccc2F)c2ccccc2n1Cc1ccc(Cl)cc1`, the EC50 was > 7.5 µM (inactive).

For `CCC/C=N/O`, the EC50 was > 7.5 µM (inactive).

In the case of `COc1ccc(N/C=C/C(=O)c2ccc(Cl)cc2)cc1`, the EC50 was > 7.5 µM (inactive).

Turning to `CC(=O)C1=C(O)C(=O)N(c2ccc(C(=O)O)cc2)C1c1ccc([N+](=O)[O-])cc1` (configuration not stated), the EC50 is > 7.5 µM (inactive).

For the compound `Cc1cccc(CC2CC(=O)N(c3ccc(C)cc3Br)C2=O)c1` (configuration not stated), the EC50 is > 7.5 µM (inactive).

Turning to `O=[N+]([O-])c1cccc(/C=N/Nc2nccnc2Cl)c1`, the EC50 was > 7.5 µM (inactive).

As for `CCOc1ccc(N2C(=O)C3ON(c4ccccc4)C(c4ccco4)C3C2=O)cc1` (configuration not stated), the EC50 is > 7.5 µM (inactive).

In the case of `O=c1c(/C=C(\O)c2ccc(F)cc2)nc2ccccc2n1-c1ccccc1`, the EC50 was > 7.5 µM (inactive).

On to `O=C(C1=C(O)C(=O)N(CCCN2CCOCC2)C1c1ccccn1)c1cc2ccccc2o1` (configuration not stated), for which the EC50 was > 7.5 µM (inactive).

With `CCNc1nc(NCC)nc(N/N=C/c2ccc(N(C)C)cc2)n1`, the EC50 was > 7.5 µM (inactive).

In the case of `C/C(=N\N=C1/NC(=O)C(C)S1)c1ccc([N+](=O)[O-])cc1` (configuration not stated), the EC50 is > 7.5 µM (inactive).

As to `CCCCc1ccc(N=N/C(C(=O)Nc2ccc(NC(C)=O)cc2OC)=C(/C)O)cc1`, the EC50 was > 7.5 µM (inactive).

In the case of `O=C(O)CC1S/C(=N/N=C/c2ccccn2)NC1=O` (configuration not stated), the EC50 was > 7.5 µM (inactive).

`Oc1ccc2nnc3c(Br)cnn3c2c1`: the EC50 was > 7.5 µM (inactive).

Turning to `Cc1ccc(NC2=C([N+](=O)[O-])CS(=O)(=O)C2)cc1`, the EC50 is > 7.5 µM (inactive).

In the case of `COc1ccccc1N1CCN(C2CC(=O)N(c3cccc(Cl)c3)C2=O)CC1` (configuration not stated), the EC50 is > 7.5 µM (inactive).

As for `COc1cc([N+](=O)[O-])ccc1N1C(=O)CC(Sc2nccc(C)n2)C1=O` (configuration not stated), the EC50 was > 7.5 µM (inactive).

Consider `CC1C2CC(C(CN(C)C)/C2=N/O)C1(C)C` (configuration not stated), for which the EC50 was > 7.5 µM (inactive).

With `COc1ccc(C2=CC(c3cc(OC)c(OC)c(OC)c3)NC(=S)N2)cc1` (configuration not stated), the EC50 is > 7.5 µM (inactive).

As for `CCN(CC)CCCN1C(=O)C(=O)/C(=C(/O)c2ccccc2)C1c1cc(OC)ccc1OC` (configuration not stated), the EC50 is > 7.5 µM (inactive).

`Cc1ccc(/C(O)=C/c2nc3cc(C)ccc3oc2=O)cc1`: the concentration giving a half-maximal response (EC50) is 5.84 µM.

On to `COc1ccccc1C1C(C(=O)c2sc(C)nc2C)=C(O)C(=O)N1CCN1CCOCC1` (configuration not stated), for which the EC50 was > 7.5 µM (inactive).

With `CCc1nnc(NS(=O)(=O)c2ccc(N=CC3=C(O)CC(C)(C)CC3=O)cc2)s1`, the EC50 was > 7.5 µM (inactive).

For the compound `O=C(CC1SC(N2CCOCC2)=NC1=O)Nc1ccc(Cl)c(C(F)(F)F)c1` (configuration not stated), the EC50 was > 7.5 µM (inactive).

With `CNC(=O)c1ccc(NC(=O)CC2SC(N3CCCC3)=NC2=O)cc1` (configuration not stated), the EC50 was > 7.5 µM (inactive).

Consider `CCOC(=O)C1=C(CSc2nc(-c3ccccc3)ccc2C#N)OC(N)=C(C#N)C1c1ccccc1` (configuration not stated), for which the EC50 was > 7.5 µM (inactive).

As for `COc1ccc(C2C(C(=O)c3ccco3)=C(O)C(=O)N2CC2CCCO2)cc1OC` (configuration not stated), the EC50 is > 7.5 µM (inactive).

Turning to `O=C(O)C(C/C(=N/O)c1ccc(Br)cc1)P(=O)(c1ccccc1)c1ccccc1` (configuration not stated), the EC50 is > 7.5 µM (inactive).

For `COC(=O)c1ccccc1NC1CC(=O)N(c2c(C)cccc2C)C1=O` (configuration not stated), the EC50 is > 7.5 µM (inactive).
